In patent US8053577B2, “Derivatives of 5,9-methanocycloocta[b]pyridin-2-(1H)-one, their preparation and use as analgesics” (priority 2006, dated 2011):

Test system: mice
Assay: Analgesic effect of intragastric administration on mice measured with hot-plate test
Format: in vivo, ICR mice
Settings: x ± s, n = 10; for pain threshold before administration / pain-threshold before administration: baseline; for pain-threshold after administration / pain-threshold before administration: time course
Protocol: The analgesic effect with a single dose of the compounds represented by Formula I is preliminarily screened at single time point through hot-plate test, with fortanodyn and aspirin as positive controls. All of the compounds are administered intragastrically.
On the basis of preliminary screening results, several representative compounds were selected to test their analgesic duration, and a part of the results is listed in Table 4. The results illustrate that the analgesic duration of most compounds is longer than 2 hours after a single oral administration, and that some of the compounds have analgesic duration lasting longer than 4 hours.
Furthermore, the dose-effect relationship on an analgesic model of two compounds was tested and the results are shown in Table 5.
Analgesic effect of intragastric administration on mice measured with hot-plate test
Female ICR mice, weight 20+2 g, were purchased from Department of Laboratory Animal Science, Beijing University, animal license number: SCXK 2002-0001.
A) Samples: samples were prepared as mixtures with 0.9% NaCl solution for intragastric administration to mice.
B) Fortanodyn: 30 mg/pill (TianJin LiSheng Pharmaceutical Co. Ltd, lot number: 0201001), 1.5 mg/mL solution was prepared with 0.9% NaCl solution for intragastric administration to mice.
1) Hot-plate test on mice was employed. A thermostatic water bath was adjusted at 55±0.5° C., the bottom of metal plates contacted water surface and used as stimuli after heating. The time span(s) from the point when the mouse was placed onto the hot-plate to the time when the mouse started to lick its metapedes was determined as its pain threshold, which was recorded by stopwatch. Female mice with a weight of 20±2 g were used. The pain threshold of every mouse was measured twice before administration, and the qualified mice are the ones whose average pain threshold was less than 30 seconds.
The qualified mice were randomly grouped with 10 mice in each group. The pain threshold before administration was determined as the basic pain threshold. To the medication administration team, drugs of different dose were given through intragastric administration, whereas to the control group, 0.9% NaCl solution was given. The administration volume was 0.2 mL for every 10 g body weight. The pain threshold of each group was measured at 1 hour after administration.
After administration the pain threshold of each group at different time was measured. The experimental data was statistically treated with t-test using SPSS10 statistics software.

[1] = Table 3 screening, 0.6 mg/kg intragastric, 1 hour
[2] = Table 3 screening, group dosed 0.6 mg/kg intragastric

SMILES | pain threshold after administration [1] [s] | pain threshold before administration [2] [s] | also measured
C/C=C1\[C@H]2C=C(C)C[C@]1(/N=C/C=C/c1ccco1)c1ccc(=O)[nH]c1C2 [Example 21, (5R,9R,11E)-5-(3-(furan-2-yl)prop-2-en-1-ylideneamino)-11-ethylidene-5,6,9,10-tetrahydro-7-methyl-5,9-methanocycloocta[b]pyridin-2(1H)-one] | – | – | pain threshold after administration (dose-effect, 0.42 mg/kg intragastric, 30 min): 16.3 ± 4.47 s; pain threshold after administration (dose-effect, 0.42 mg/kg intragastric, 60 min): 16.4 ± 4.03 s; pain threshold after administration (dose-effect, 0.42 mg/kg intragastric, 120 min): 13.2 ± 2.86 s; pain threshold after administration (dose-effect, 0.42 mg/kg intragastric, 180 min): 14.1 ± 1.66 s; pain threshold before administration (dose-effect, group dosed 0.42 mg/kg intragastric): 12.5 ± 2.79 s; pain-threshold after administration (0.71 mg/kg intragastric, 30 min): 17.2 ± 6.37 s; pain-threshold after administration (0.71 mg/kg intragastric, 60 min): 21.0 ± 8.77 s; pain-threshold after administration (0.71 mg/kg intragastric, 120 min): 16.9 ± 8.32 s; pain-threshold after administration (0.71 mg/kg intragastric, 180 min): 12.9 ± 3.87 s; pain-threshold after administration (0.84 mg/kg intragastric, 30 min): 23.3 ± 7.45 s; pain-threshold after administration (0.84 mg/kg intragastric, 60 min): 28.1 ± 10.15 s; pain-threshold after administration (0.84 mg/kg intragastric, 120 min): 14.9 ± 5.02 s; pain-threshold after administration (0.84 mg/kg intragastric, 180 min): 13.7 ± 2.98 s; pain-threshold before administration (group dosed 0.71 mg/kg intragastric): 11.9 ± 3.90 s; pain-threshold before administration (group dosed 0.84 mg/kg intragastric): 12.3 ± 3.86 s
C/C=C1\[C@H]2C=C(C)C[C@]1(/N=C/C=C/c1cccc(Br)c1)c1ccc(=O)[nH]c1C2 [Example 11, (5R,9R,11E)-5-(3-(3-bromophenyl)prop-2-en-1-ylideneamino)-11-ethylidene-5,6,9,10-tetrahydro-7-methyl-5,9-methanocycloocta[b]pyridin-2(1H)-one] | 23.0 ± 4.98 | 12.8 ± 3.12 | –
C/C=C1\[C@H]2C=C(C)C[C@]1(N=CC=Cc1ccncc1)c1ccc(=O)[nH]c1C2 [Example 20, (5R,9R,11E)-5-(3-(pyridin-4-yl)prop-2-en-1-ylideneamino)-11-ethylidene-5,6,9,10-tetrahydro-7-methyl-5,9-methanocycloocta[b]pyridin-2(1H)-one] | 25.0 ± 5.18 | 12.6 ± 2.42 | –
C/C=C1\C2C=C(C)CC1(/N=C\C=C\c1ccc(/C=C/C=N/C34CC(C)=CC(Cc5[nH]c(=O)ccc53)/C4=C\C)cc1)c1ccc(=O)[nH]c1C2 [Example 28] | 23.4 ± 3.88 | 12.6 ± 2.73 | –
C/C=C1\[C@H]2C=C(C)C[C@]1(/N=C/C=C/c1ccc(OC)cc1)c1ccc(=O)[nH]c1C2 [Example 17, (5R,9R,11E)-5-(3-(4-methoxylphenyl)prop-2-en-1-ylideneamino)-11-ethylidene-5,6,9,10-tetrahydro-7-methyl-5,9-methanocycloocta[b]pyridin-2(1H)-one] | 24.6 ± 5.46 | 12.2 ± 2.14 | –
C/C=C1\[C@H]2C=C(C)C[C@]1(/N=C/C=C/C=C/c1ccccc1)c1ccc(=O)[nH]c1C2 [Example 8, (5R,9R,11E)-5-(5-phenylpenta-2,4-dien-1-ylideneamino)-11-ethylidene-5,6,9,10-tetrahydro-7-methyl-5,9-methanocycloocta[b]pyridin-2(1H)-one] | 23.0 ± 3.52 | – | –
C/C=C1\[C@H]2C=C(C)C[C@]1(/N=C/C=C/c1ccc(C)cc1)c1ccc(=O)[nH]c1C2 [Example 6, (5R,9R,11E)-5-(3-(4-methylphenyl)prop-2-en-1-ylideneamino)-11-ethylidene-5,6,9,10-tetrahydro-7-methyl-5,9-methanocycloocta[b]pyridin-2(1H)-one] | – | – | pain-threshold after administration (0.76 mg/kg intragastric, 30 min): 24.8 ± 8.77 s; pain-threshold after administration (0.76 mg/kg intragastric, 60 min): 31.9 ± 7.76 s; pain-threshold after administration (0.76 mg/kg intragastric, 120 min): 22.6 ± 8.37 s; pain-threshold after administration (0.76 mg/kg intragastric, 180 min): 25.9 ± 11.50 s; pain-threshold after administration (0.76 mg/kg intragastric, 240 min): 24.5 ± 10.55 s; pain-threshold before administration (group dosed 0.76 mg/kg intragastric): 11.6 ± 4.14 s
C/C=C1\[C@H]2C=C(C)C[C@]1(/N=C/C=C/c1ccc(Br)cc1)c1ccc(=O)[nH]c1C2 [Example 13, (5R,9R,11E)-5-(3-(4-bromophenyl)prop-2-en-1-ylideneamino)-11-ethylidene-5,6,9,10-tetrahydro-7-methyl-5,9-methanocycloocta[b]pyridin-2(1H)-one] | 22.0 ± 4.86 | – | –
C/C=C1\[C@H]2C=C(C)C[C@]1(/N=C/C=C/c1ccccc1OC)c1ccc(=O)[nH]c1C2 [Example 18, (5R,9R,11E)-5-(3-(2-methoxylphenyl)prop-2-en-1-ylideneamino)-11-ethylidene-5,6,9,10-tetrahydro-7-methyl-5,9-methanocycloocta[b]pyridin-2(1H)-one] | 26.0 ± 5.01 | 13.0 ± 3.03 | –
C/C=C1\[C@H]2C=C(C)C[C@]1(/N=C/C=C/c1cccc(OC)c1)c1ccc(=O)[nH]c1C2 [Example 19, (5R,9R,11E)-5-(3-(3-methoxylphenyl)prop-2-en-1-ylideneamino)-11-ethylidene-5,6,9,10-tetrahydro-7-methyl-5,9-methanocycloocta[b]pyridin-2(1H)-one] | 18.6 ± 3.44 | 12.0 ± 2.53 | –
C/C=C1\[C@H]2C=C(C)C[C@]1(N=CC(Br)=Cc1ccccc1)c1ccc(=O)[nH]c1C2 [Example 10, (5R,9R,11E)-5-(2-bromo-3-phenylprop-2-en-1-ylideneamino)-11-ethylidene-5,6,9,10-tetrahydro-7-methyl-5,9-methanocycloocta[b]pyridin-2(1H)-one] | 21.0 ± 3.16 | 11.8 ± 3.54 | –
C/C=C1\C2C=C(C)CC1(/N=C/C=C/c1c3ccccc3cc3ccccc13)c1ccc(=O)[nH]c1C2 [Example 26, (5R,9R,11E)-5-(3-(anthracen-9-yl)prop-2-en-1-ylideneamino)-11-ethylidene-5,6,9,10-1,7-dimethyl-5,9-methanocycloocta[b]pyridin-2(1H)-one] | 20.8 ± 3.60 | – | –
C/C=C1\C2C=C(C)CC1(/N=C/C=C/c1ccc3ccccc3c1)c1ccc(=O)[nH]c1C2 [Example 22, (5R,9R,11E)-5-(3-(naphthalen-2-yl)prop-2-en-1-ylideneamino)-11-ethylidene-5,6,9,10-1,7-dimethyl-5,9-methanocycloocta[b]pyridin-2(1H)-one] | 23.6 ± 4.27 | 12.4 ± 4.13 | –
C/C=C1\[C@H]2C=C(C)C[C@]1(/N=C/C=C/c1ccccc1Cl)c1ccc(=O)[nH]c1C2 [Example 16, (5R,9R,11E)-5-(3-(2-chlorophenyl)prop-2-en-1-ylideneamino)-11-ethylidene-5,6,9,10-tetrahydro-7-methyl-5,9-methanocycloocta[b]pyridin-2(1H)-one] | 27.4 ± 5.16 | 13.2 ± 3.76 | –
C/C=C1\C2C=C(C)CC1(/N=C\c1ccc(/C=C/C=N/C34CC(C)=CC(Cc5[nH]c(=O)ccc53)/C4=C\C)cc1)c1ccc(=O)[nH]c1C2 (stereo not shown) [Example 27] | 21.2 ± 5.53 | 12.4 ± 3.14 | –
C/C=C1\[C@H]2C=C(C)C[C@]1(/N=C/C=C(\C)c1ccccc1)c1ccc(=O)[nH]c1C2 [Example 7, (5R,9R,11E)-5-(3-methyl-3-phenylprop-2-en-1-ylideneamino)-11-ethylidene-5,6,9,10-tetrahydro-7-methyl-5,9-methanocycloocta[b]pyridin-2(1H)-one] | 24.6 ± 5.61 | 12.4 ± 2.33 | –
